Test results: ChEMBL document CHEMBL4020739, “Investigation of the structural requirements of K-Ras(G12D) selective inhibitory peptide KRpep-2d using alanine scans and cysteine bridging” (Bioorg Med Chem Lett, 2017)
Peptide text beside a SMILES is read from it.

Tests used:
[1] = molecular target: GTPase KRas (Homo sapiens, UniProt P01116, G12C); assay: Inhibition of biotinylated K-Ras G12C mutant (unknown origin) assessed as reduction in SOS1 (564 to 1049 residues)-mediated BODIPY-GDP-GTP exchange after 1 hr by TR-FRET assay
[2] = molecular target: GTPase KRas (Homo sapiens, UniProt P01116); assay: Inhibition of biotinylated wild-type K-Ras (unknown origin) assessed as inhibition of human SOS1 (564 to 1049 residues)-mediated BODIPY-GDP-GTP exchange after 1 hr by TR-FRET assay
[3] = species: Homo sapiens; assay: Selectivity ratio of IC50 for inhibition of biotinylated wild type K-Ras (unknown origin) to IC50 for inhibition of biotinylated K-Ras G12D mutant (unknown origin)
[4] = molecular target: T1, GTPase KRas (Homo sapiens, UniProt P01116, G12D); assay: Inhibition of biotinylated K-Ras G12D mutant (unknown origin) assessed as reduction in SOS1 (564 to 1049 residues)-mediated BODIPY-GDP-GTP exchange after 1 hr in presence of DTT by TR-FRET assay
[5] = molecular target: T1, GTPase KRas; assay: Inhibition of biotinylated K-Ras G12D mutant (unknown origin) assessed as reduction in SOS1 (564 to 1049 residues)-mediated BODIPY-GDP-GTP exchange after 1 hr by TR-FRET assay
[6] = species: Homo sapiens; assay: Selectivity ratio of IC50 for inhibition of biotinylated K-Ras G12C mutant (unknown origin) to IC50 for inhibition of biotinylated K-Ras G12D mutant (unknown origin)

Structure (SMILES) | IC50 [1] [µM] | IC50 [2] [µM] | Ratio IC50 [3] | IC50 [4] [µM] | IC50 [5] [µM] | Ratio IC50 [6]
CC(=O)N[C@@H](CCCNC(=N)N)C(=O)N[C@@H](CCCNC(=N)N)C(=O)N[C@@H](CCCNC(=N)N)C(=O)N[C@@H](CCCNC(=N)N)C(=O)N[C@H]1CSSC[C@@H](C(=O)N[C@@H](CCCNC(=N)N)C(=O)N[C@@H](CCCNC(=N)N)C(=O)N[C@@H](CCCNC(=N)N)C(=O)N[C@@H](CCCNC(=N)N)C(N)=O)NC(=O)[C@H](C(C)C)NC(=O)[C@@H]2CCCN2C(=O)[C@H](CC(=O)O)NC(=O)[C@H](Cc2ccc(O)cc2)NC(=O)[C@H](CO)NC(=O)[C@H](C)NC(=O)[C@H](Cc2ccc(O)cc2)NC(=O)[C@H](CC(C)C)NC(=O)[C@@H]2CCCN2C1=O (HELM PEPTIDE1{[ac].R.R.R.R.C.P.L.Y.A.S.Y.D.P.V.C.R.R.R.R.[am]}$PEPTIDE1,PEPTIDE1,6:R3-16:R3$$$V2.0) | 5.19 | 39.3 | 2 | 73.5 | 20.6 | 0.3
CC[C@H](C)[C@@H]1NC(=O)[C@H](Cc2ccc(O)cc2)NC(=O)[C@H](CC(C)C)NC(=O)[C@@H]2CCCN2C(=O)[C@@H](NC(C)=O)CSSC[C@@H](C(N)=O)NC(=O)[C@H](C(C)C)NC(=O)[C@@H]2CCCN2C(=O)[C@H](CC(=O)O)NC(=O)[C@H](Cc2ccc(O)cc2)NC(=O)[C@H](CO)NC1=O (HELM PEPTIDE1{[ac].C.P.L.Y.I.S.Y.D.P.V.C.[am]}$PEPTIDE1,PEPTIDE1,2:R3-12:R3$$$V2.0) | 0.082 | 0.142 | 13 | 9.77 | 0.011 | 7
CC[C@H](C)[C@@H]1NC(=O)[C@H](Cc2ccc(O)cc2)NC(=O)[C@H](CC(C)C)NC(=O)[C@@H]2CCCN2C(=O)[C@@H](NC(=O)[C@H](CCCNC(=N)N)NC(=O)[C@H](CCCNC(=N)N)NC(=O)[C@H](CCCNC(=N)N)NC(=O)[C@H](CCCNC(=N)N)NC(C)=O)CSSC[C@@H](C(=O)N[C@@H](CCCNC(=N)N)C(=O)N[C@@H](CCCNC(=N)N)C(=O)N[C@@H](CCCNC(=N)N)C(=O)N[C@@H](CCCNC(=N)N)C(N)=O)NC(=O)[C@H](C(C)C)NC(=O)[C@@H]2CCCN2C(=O)[C@H](CC(=O)O)NC(=O)[C@H](C)NC(=O)[C@H](CO)NC1=O (HELM PEPTIDE1{[ac].R.R.R.R.C.P.L.Y.I.S.A.D.P.V.C.R.R.R.R.[am]}$PEPTIDE1,PEPTIDE1,6:R3-16:R3$$$V2.0) | 0.358 | 4.19 | 65 | 0.244 | 0.064 | 6
CC[C@H](C)[C@@H]1NC(=O)[C@H](Cc2ccc(O)cc2)NC(=O)[C@H](C)NC(=O)[C@@H]2CCCN2C(=O)[C@@H](NC(=O)[C@H](CCCNC(=N)N)NC(=O)[C@H](CCCNC(=N)N)NC(=O)[C@H](CCCNC(=N)N)NC(=O)[C@H](CCCNC(=N)N)NC(C)=O)CSSC[C@@H](C(=O)N[C@@H](CCCNC(=N)N)C(=O)N[C@@H](CCCNC(=N)N)C(=O)N[C@@H](CCCNC(=N)N)C(=O)N[C@@H](CCCNC(=N)N)C(N)=O)NC(=O)[C@H](C(C)C)NC(=O)[C@@H]2CCCN2C(=O)[C@H](CC(=O)O)NC(=O)[C@H](Cc2ccc(O)cc2)NC(=O)[C@H](CO)NC1=O (HELM PEPTIDE1{[ac].R.R.R.R.C.P.A.Y.I.S.Y.D.P.V.C.R.R.R.R.[am]}$PEPTIDE1,PEPTIDE1,6:R3-16:R3$$$V2.0) | 1.63 | > 100 | > 56 | > 100 | 1.79 | 1
CC[C@H](C)[C@@H]1NC(=O)[C@H](C)NC(=O)[C@H](CC(C)C)NC(=O)[C@@H]2CCCN2C(=O)[C@@H](NC(=O)[C@H](CCCNC(=N)N)NC(=O)[C@H](CCCNC(=N)N)NC(=O)[C@H](CCCNC(=N)N)NC(=O)[C@H](CCCNC(=N)N)NC(C)=O)CSSC[C@@H](C(=O)N[C@@H](CCCNC(=N)N)C(=O)N[C@@H](CCCNC(=N)N)C(=O)N[C@@H](CCCNC(=N)N)C(=O)N[C@@H](CCCNC(=N)N)C(N)=O)NC(=O)[C@H](C(C)C)NC(=O)[C@@H]2CCCN2C(=O)[C@H](CC(=O)O)NC(=O)[C@H](Cc2ccc(O)cc2)NC(=O)[C@H](CO)NC1=O (HELM PEPTIDE1{[ac].R.R.R.R.C.P.L.A.I.S.Y.D.P.V.C.R.R.R.R.[am]}$PEPTIDE1,PEPTIDE1,6:R3-16:R3$$$V2.0) | 0.053 | 1.73 | 34 | 0.192 | 0.05 | 1

Continued, values first:

IC50 [1] [µM] | IC50 [2] [µM] | Ratio IC50 [3] | IC50 [4] [µM] | IC50 [5] [µM] | Ratio IC50 [6] | Structure (SMILES)
0.113 | 0.763 | 41 | 0.172 | 0.019 | 6 | CC[C@H](C)[C@@H]1NC(=O)[C@H](Cc2ccc(O)cc2)NC(=O)[C@H](CC(C)C)NC(=O)[C@H](C)NC(=O)[C@@H](NC(=O)[C@H](CCCNC(=N)N)NC(=O)[C@H](CCCNC(=N)N)NC(=O)[C@H](CCCNC(=N)N)NC(=O)[C@H](CCCNC(=N)N)NC(C)=O)CSSC[C@@H](C(=O)N[C@@H](CCCNC(=N)N)C(=O)N[C@@H](CCCNC(=N)N)C(=O)N[C@@H](CCCNC(=N)N)C(=O)N[C@@H](CCCNC(=N)N)C(N)=O)NC(=O)[C@H](C(C)C)NC(=O)[C@@H]2CCCN2C(=O)[C@H](CC(=O)O)NC(=O)[C@H](Cc2ccc(O)cc2)NC(=O)[C@H](CO)NC1=O (HELM PEPTIDE1{[ac].R.R.R.R.C.A.L.Y.I.S.Y.D.P.V.C.R.R.R.R.[am]}$PEPTIDE1,PEPTIDE1,6:R3-16:R3$$$V2.0)
0.036 | 0.764 | 121 | 0.022 | 0.0063 | 6 | CC[C@H](C)[C@@H]1NC(=O)[C@H](Cc2ccc(O)cc2)NC(=O)[C@H](CC(C)C)NC(=O)[C@@H]2CCCN2C(=O)[C@@H](NC(=O)[C@H](CCCNC(=N)N)NC(=O)[C@H](CCCNC(=N)N)NC(=O)[C@H](CCCNC(=N)N)NC(=O)[C@H](CCCNC(=N)N)NC(C)=O)CSSC[C@@H](C(=O)N[C@@H](CCCNC(=N)N)C(=O)N[C@@H](CCCNC(=N)N)C(=O)N[C@@H](CCCNC(=N)N)C(=O)N[C@@H](CCCNC(=N)N)C(N)=O)NC(=O)[C@H](C(C)C)NC(=O)[C@@H]2CCCN2C(=O)[C@H](CC(=O)O)NC(=O)[C@H](Cc2ccc(O)cc2)NC(=O)[C@H](C)NC1=O (HELM PEPTIDE1{[ac].R.R.R.R.C.P.L.Y.I.A.Y.D.P.V.C.R.R.R.R.[am]}$PEPTIDE1,PEPTIDE1,6:R3-16:R3$$$V2.0)
0.044 | 0.105 | 14 | 0.0358 | 0.0075 | 6 | CC[C@H](C)[C@@H]1NC(=O)[C@H](Cc2ccc(O)cc2)NC(=O)[C@H](CC(C)C)NC(=O)[C@@H]2CCCN2C(=O)[C@@H](NC(=O)[C@H](CCCNC(=N)N)NC(=O)[C@H](CCCNC(=N)N)NC(=O)[C@H](CCCNC(=N)N)NC(=O)[C@H](CCCNC(=N)N)NC(C)=O)CSSC[C@@H](C(=O)N[C@@H](CCCNC(=N)N)C(=O)N[C@@H](CCCNC(=N)N)C(=O)N[C@@H](CCCNC(=N)N)C(=O)N[C@@H](CCCNC(=N)N)C(N)=O)NC(=O)[C@H](C)NC(=O)[C@@H]2CCCN2C(=O)[C@H](CC(=O)O)NC(=O)[C@H](Cc2ccc(O)cc2)NC(=O)[C@H](CO)NC1=O (HELM PEPTIDE1{[ac].R.R.R.R.C.P.L.Y.I.S.Y.D.P.A.C.R.R.R.R.[am]}$PEPTIDE1,PEPTIDE1,6:R3-16:R3$$$V2.0)
0.012 | 0.216 | 80 | 0.0074 | 0.0027 | 4 | CC[C@H](C)[C@@H]1NC(=O)[C@H](Cc2ccc(O)cc2)NC(=O)[C@H](CC(C)C)NC(=O)[C@@H]2CCCN2C(=O)[C@@H](NC(=O)[C@H](CCCNC(=N)N)NC(=O)[C@H](CCCNC(=N)N)NC(=O)[C@H](CCCNC(=N)N)NC(=O)[C@H](CCCNC(=N)N)NC(C)=O)CSSC[C@@H](C(=O)N[C@@H](CCCNC(=N)N)C(=O)N[C@@H](CCCNC(=N)N)C(=O)N[C@@H](CCCNC(=N)N)C(=O)N[C@@H](CCCNC(=N)N)C(N)=O)NC(=O)[C@H](C(C)C)NC(=O)[C@H](C)NC(=O)[C@H](CC(=O)O)NC(=O)[C@H](Cc2ccc(O)cc2)NC(=O)[C@H](CO)NC1=O (HELM PEPTIDE1{[ac].R.R.R.R.C.P.L.Y.I.S.Y.D.A.V.C.R.R.R.R.[am]}$PEPTIDE1,PEPTIDE1,6:R3-16:R3$$$V2.0)
0.975 | 65 | 4 | > 100 | 15.4 | 0.06 | CC[C@H](C)[C@@H]1NC(=O)[C@H](Cc2ccc(O)cc2)NC(=O)[C@H](CC(C)C)NC(=O)[C@@H]2CCCN2C(=O)[C@@H](NC(=O)[C@H](CCCNC(=N)N)NC(=O)[C@H](CCCNC(=N)N)NC(=O)[C@H](CCCNC(=N)N)NC(=O)[C@H](CCCNC(=N)N)NC(C)=O)CSSC[C@@H](C(=O)N[C@@H](CCCNC(=N)N)C(=O)N[C@@H](CCCNC(=N)N)C(=O)N[C@@H](CCCNC(=N)N)C(=O)N[C@@H](CCCNC(=N)N)C(N)=O)NC(=O)[C@H](C(C)C)NC(=O)[C@@H]2CCCN2C(=O)[C@H](C)NC(=O)[C@H](Cc2ccc(O)cc2)NC(=O)[C@H](CO)NC1=O (HELM PEPTIDE1{[ac].R.R.R.R.C.P.L.Y.I.S.Y.A.P.V.C.R.R.R.R.[am]}$PEPTIDE1,PEPTIDE1,6:R3-16:R3$$$V2.0)
